Source: patent publication US5015629A, “Tissue repair” (University of Southern California, priority 1990, dated 1991)

Tested on: bovine endothelial cells
Assay type: cell-based
Procedure: In a second example, the effects of angiotensin II on proliferation (mitogenesis) and directional migration (chemotaxis) of endothelial cells were determined. In this regard, it is important to consider that tissue repair requires proper neovascularization, and that new blood vessel growth for wound repair requires endothelial cell replication, migration and orientation. Wound healing factors must be able to stimulate chemotaxis and cell proliferation in addition to initiating new blood vessel growth. The proliferation (mitogenesis) and the directional orientation of such cells (chemotaxis) was studied in vitro using bovine aortal endothelial cells. […] Background radioactivity (noncell-associated) was assessed by removing some filters immediately after the addition of cells prior to cellular migration, and processing these control filters the same way as the test filters. […] The latter was calculated by the following formula: [formula] where R equals the radioactivity in cpm associated with each test filter, B equals the cpm obtained from the background filters, T equals the cpm obtained from a volume (V) of cells in suspension at a known concentration (C) and S equals the cpm obtained from the cell supernate (noncellular, or unbound radioactivity). […]

CC[C@H](C)[C@H](NC(=O)[C@H](Cc1ccc(O)cc1)NC(=O)[C@@H](NC(=O)[C@H](CCCNC(=N)N)NC(=O)[C@@H](N)CC(=O)O)C(C)C)C(=O)N[C@@H](Cc1c[nH]cn1)C(=O)N1CCC[C@H]1C(=O)N[C@@H](Cc1ccccc1)C(=O)O [angiotensin II]
ED50 of chemotaxis: 3 nanogram/ml
